Like-named read-outs stand apart in the source and are kept apart here.

In assay [1] the target is T1, dopamine autoreceptor (Rattus norvegicus, UniProt P61169).
T1 construct: from tissue; host or cells: rat striatal brain tissue homogenate
As to the kind of experiment: Affinity for the dopamine autoreceptor: [3H]-quinpirole binding in homogenized rat striatal brain tissue. The note with it: for IC50: [3H]-quinpirole, rat striatal brain tissue, read-out: IC50 (nM) D2 Quin.; for Ratio antagonist: ratio of D2 Spiper IC50 to D2 Quin. IC50 (LowAg/HighAg, predicts intrinsic activity). How it is done:
Affinity for the dopamine autoreceptor was established by a modification of the standard experimental test procedure of Seemen and Schaus, European Journal of Pharmacology 203: 105-109, 1991, wherein homogenized rat striatal brain tissue is incubated with [^3H]-quinpirole (Quin.) at various concentrations of test compound, filtered, washed and counted in a Betaplate scintillation counter.

Assay [2] has as its target α1. As to the kind of experiment: α1 binding (method not described).
Assay [3] addresses T2, 5-HT1a (Homo sapiens, UniProt P08908).
T2 sequence (P08908 1-422): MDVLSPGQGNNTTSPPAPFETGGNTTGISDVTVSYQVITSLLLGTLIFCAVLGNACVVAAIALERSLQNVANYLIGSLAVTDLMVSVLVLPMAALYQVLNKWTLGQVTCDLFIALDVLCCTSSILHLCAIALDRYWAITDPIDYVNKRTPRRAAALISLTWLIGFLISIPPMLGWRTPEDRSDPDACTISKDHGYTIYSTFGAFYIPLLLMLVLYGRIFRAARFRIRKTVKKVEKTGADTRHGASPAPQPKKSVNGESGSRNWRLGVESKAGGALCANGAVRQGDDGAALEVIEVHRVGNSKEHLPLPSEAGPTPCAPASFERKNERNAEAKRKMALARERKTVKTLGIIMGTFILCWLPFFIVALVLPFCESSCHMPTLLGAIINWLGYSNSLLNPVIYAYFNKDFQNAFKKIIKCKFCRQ
As to the kind of experiment: 5-HT1a binding (method not described).

T1 sequence (P61169 whole entry): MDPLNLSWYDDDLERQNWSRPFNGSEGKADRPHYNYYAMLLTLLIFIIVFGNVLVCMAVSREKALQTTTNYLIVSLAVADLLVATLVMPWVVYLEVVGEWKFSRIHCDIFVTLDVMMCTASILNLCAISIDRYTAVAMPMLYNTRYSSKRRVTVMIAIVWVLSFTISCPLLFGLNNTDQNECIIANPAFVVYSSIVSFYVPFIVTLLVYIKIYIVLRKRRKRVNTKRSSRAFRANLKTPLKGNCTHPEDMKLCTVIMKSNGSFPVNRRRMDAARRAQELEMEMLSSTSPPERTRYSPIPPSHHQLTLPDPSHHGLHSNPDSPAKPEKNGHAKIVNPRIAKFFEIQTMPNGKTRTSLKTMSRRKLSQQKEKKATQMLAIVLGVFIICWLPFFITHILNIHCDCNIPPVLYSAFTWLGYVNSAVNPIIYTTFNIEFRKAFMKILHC

Usually IC50 stands for the concentration at which inhibition is half-maximal. For `O=C1Cc2c(ccc3c2OC(CNCc2ccccc2)CC3)N1` (single isomer, unassigned; (+)) [Example 2a, (+)-2-(benzylamino-methyl)-3,4,7,9-tetrhydro-2H-pyrano[2,3-e]indol-8-one], the IC50 in assay [1] was 16.4 nM; in assay [2], 519 nM; in assay [3] (read-out: IC50 (nM) 5-HT1a.), 330 nM. Further, in assay [1], the Ratio antagonist was 45.

Take `O=C1Cc2c(ccc3c2OC(CNCc2ccccc2)CC3)N1` (single isomer, unassigned; (-)) [Example 2b, (-)-2-(benzylamino-methyl)-3,4,7,9-tetrhydro-2H-pyrano[2,3-e]indol-8-one]: the figures for the half-maximal inhibitory concentration (IC50) in assay [1], in assay [2] and in assay [3] (read-out: IC50 (nM) 5-HT1a.) were 0.27 nM, 330 nM and 17.1 nM, respectively. The Ratio antagonist in assay [1] was 265.

Regarding `O=C1Cc2c(ccc3c2OC(CNCc2ccccc2)CC3)N1` (centres unmarked) [Example 1a, 2-(Benzylamino-methyl)-3,4,7,9-tetrahydro-2H-pyrano-[2,3-e]indol-8-one], the IC50 came out at 0.73 nM in assay [1], 244 nM in assay [2] and 34 nM in assay [3] (read-out: IC50 (nM) 5-HT1a.). The Ratio antagonist in assay [1] is listed as 194.

For `O=C1Cc2c(ccc3c2OC(CNCc2ccc(F)cc2)CC3)N1` (centres unmarked) [Example 1b, 2-(4-Fluoro-benzylamino-methyl)-3,4,7,9-tetrahydro-2H-pyrano[2,3-e]indol-8-one], the IC50 in assay [1] was 0.83 nM; in assay [2] it was 352 nM; in assay [3] (read-out: IC50 (nM) 5-HT1a.), 16 nM. Moreover, the Ratio antagonist in assay [1] is reported as 375.

Regarding `COc1ccc(CNCC2CCc3ccc4c(c3O2)CC(=O)N4)cc1` (centres unmarked) [Example 1c, 2-(4-Methoxy-benzylamino-methyl)-3,4,7,9-tetrahydro-2H-pyrano[2,3-e]indol-8-one], the figures for the concentration for half-maximal inhibition (IC50) in assay [1], in assay [2] and in assay [3] (read-out: IC50 (nM) 5-HT1a.) were 0.96 nM, 258 nM and 38 nM, respectively. The Ratio antagonist in assay [1] was 307.

For `Cc1ccc(CNCC2CCc3ccc4c(c3O2)CC(=O)N4)cc1` (centres unmarked) [Example 1d, 2-(4-Methyl-benzylamino-methyl)-3,4,7,9-tetrahydro-2H-pyrano[2,3-e]indol-8-one], the figures for the half-inhibitory concentration (IC50) in assay [1], in assay [2] and in assay [3] (read-out: IC50 (nM) 5-HT1a.) were 0.45 nM, 194 nM and 10 nM, respectively. For the same compound, the Ratio antagonist in assay [1] was 229.

As for `O=C1Cc2c(ccc3c2OC(CNCc2ccc(Cl)cc2)CC3)N1` (centres unmarked) [Example 1e, 2-(4-Chloro-benzylamino-methyl)-3,4,7,9-tetrahydro-2H-pyrano[2,3-e]indol-8-one], the IC50 in assay [1] is 0.64 nM; in assay [2], 184 nM; in assay [3] (read-out: IC50 (nM) 5-HT1a.) it was 7.53 nM. Also, the Ratio antagonist in assay [1] was 233.

Turning to `Cc1ccc(CNCC2CCc3ccc4c(c3O2)CC(=O)N4)c(C)c1` (centres unmarked) [Example 1f, 2-(2,4-Dimethyl-benzylamino-methyl)-3,4,7,9-tetrahydo-2H-pyrano[2,3-e]indol-8-one], the values for the IC50 in assay [1], in assay [2] and in assay [3] (IC50 (nM) 5-HT1a.) were 2.62 nM, 81 nM and 15 nM, respectively. Besides, in assay [1], the Ratio antagonist is 150.

Values taken from patent publication EP0771801B1, “Chromane derivatives” (AMERICAN HOME PRODUCTS CORPORATION, priority 1995, dated 1997).
